{"source": "patent US20050245537A1", "about": "“Use of compounds having ccr antagonism” (priority 2002, published 2005)", "tested_on": "Mouse Skin Graft Rejection Model", "assay": "Mouse skin graft rejection model", "assay_type": "in vivo", "description": "Effects of a Compound with Respect to a Mouse Skin Graft Rejection Model", "data": [{"compound": "Cc1ccc(-c2ccc3c(c2)C=C(C(=O)Nc2ccc(C[N+](C)(C)C4CCOCC4)cc2)CCC3)cc1.[Cl-]", "note": "[N,N-dimethyl-N-(4-[[[2-(4-methylphenyl)-6,7-dihydro-5H-benzocyclohepten-8-yl]carbonyl]amino]benzyl]tetrahydro-2H-pyran-4-ammonium chloride]", "values": [{"measurement": "graft rejection suppression effect", "setting": "10 mg/kg subdermally once a day, P<0.05 vs. control, log-rank test", "result": "significant"}, {"measurement": "number of days of skin graft life", "setting": "donor mouse B6-CH-2^bm12 abdominal skin grafted onto recipient mouse (B6/129), 10 mg/kg subdermally once a day from the day of grafting, n=7, control group 13.0±2.8 days (n=6)", "result": "19.6 ± 4.4", "unit": "days"}]}]}
